The record followed here is US20240246954A1, “COMPOSITIONS AND METHODS FOR INHIBITING KRAS” (TheRas, Inc., priority 2021, published 2024).

In assay [1] the target is T1, Avi-KRAS G12D (1-169) GppNHp/RAF1 RBD-3×FLAG (52-151) (Homo sapiens, UniProt P01116, G12D).
T1 construct: Avi-KRAS G12D (1-169) GppNHp
The assay can be described thus: HTRF Raf1-KRAS G12D-GppNHp disruption assay. In kind it is biochemical. To be noted: 1 h incubation. The essentials: (§1)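 HTRF read-out (320 nm excitation, 615 nm emission) after two 1 h room-temperature incubations, first with protein mix, then detection reagents. Ten-point dilution series starting at 100 μM; results given as % activity relative to DMSO at 100%.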
On the technique in general: Time-resolved FRET reads energy transfer from a long-lived donor to a nearby acceptor.

Assay [2] deals with T2, Avi-KRAS G12D/Q25A (1-169) GppNHp/3×FLAG-PI3KCA (157-299) (Homo sapiens, UniProt P01116, G12D/Q25A).
T2 construct: Avi-KRAS G12D/Q25A (1-169) GppNHp
Kind of assay: HTRF PI3KCA-KRAS G12D/Q25A-GppNHp disruption assay. The format is biochemical. The note with it: 1 h incubation. The essentials:
as §1

Assay [3] concerns pERK in GP2d cells (KRAS G12D). The assay can be described thus: Cell-based pERK HTRF assay. The note with it: GP2d, 1 h, 60 min incubation. Here is the method: Biological Example 3. Cell-Based pERK HTRF Assay
pERK assay (Perkin Elmer) was used to determine the effectiveness of compounds in disrupting KRAS G12D protein/effector signaling in cells.
On Day 1, cells (GP2d) were seeded into 96-well plates at 3×10^4 cells/well in 80 μl complete growth media (DMEM, 10% FBS).
On Day 2, cells were treated with compounds at 0.25% DMSO. The source plate was created with compounds diluted in media at 5-fold the final assay concentration. The compounds were run in a 9-point concentration curve starting at 1 μM, with a half-log dilution between concentrations. 20 μL was transferred onto the cell plates (final volume in wells was 100 μL). Plates were harvested after 60 min incubation by aspirating media and adding kit-supplied 1× supplemented lysis buffer to all wells (50 μl per well). Plates were then placed on a plate shaker and incubated at 850 rpm for an additional 30 min.
Antibody mixture solution is prepared by diluting aliquoted d2 and Eu Cryptate antibodies 1:20 in kit supplied detection buffer, mix the diluted antibodies solutions (1:1 v:v). Four μL of this solution is then added to a 384-well detection plate (Perkin Elmer; 6008230).
Samples were homogenized by pipetting up and down and then transferred (16 μL of cell lysates) from the 96-well cell culture plate to two wells of the HTRF 384-well detection plate containing the antibody solution. Plates were centrifuged (524 g for 1 min) and allowed to incubate between 4 and 24 h at room temperature. Maximum signal is reached after 4 h incubation time and remains stable over a period of 24 hours. Therefore, readings can be made between 4 and 24 h of incubation. Plates were centrifuged again (524 g for 1 min), then analyzed on the EnVision plate reader using the following settings: Excitation 320 nm, Bandwidth 75 nm; Emission 615 nm, Bandwidth 85 nm; Gain 100%; Flashes 100; Lag 60 μs.

Molecules are shown by their SMILES.

T1 sequence (P01116 1-169 isoform P01116-2 G12D limits assumed): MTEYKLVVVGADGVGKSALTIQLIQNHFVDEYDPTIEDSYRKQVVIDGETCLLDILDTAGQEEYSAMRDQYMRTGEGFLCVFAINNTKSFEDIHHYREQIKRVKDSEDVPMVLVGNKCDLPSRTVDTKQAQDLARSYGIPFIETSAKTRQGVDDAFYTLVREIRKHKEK
T2 sequence (P01116 1-169 isoform P01116-2 G12D/Q25A limits assumed): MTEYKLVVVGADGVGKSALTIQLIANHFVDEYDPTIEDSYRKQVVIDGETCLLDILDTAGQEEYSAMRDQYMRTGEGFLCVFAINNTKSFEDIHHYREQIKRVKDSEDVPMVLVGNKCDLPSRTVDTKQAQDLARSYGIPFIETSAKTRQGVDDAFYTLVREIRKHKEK

Broadly, the IC50 is the midpoint of a concentration-inhibition curve. The low end stands for greater potency, the high end for weaker potency. Regarding `Nc1nc2c(-c3cc4nc(OC[C@@]56CCCN5C[C@H](F)C6)nc(N5CC6CCC(C5)N6)c4cc3C(F)(F)F)c(F)cc(F)c2s1` [Compound 319], the IC50 in assay [1] was 100 to 1000 nM; in assay [2], 100 to 1000 nM; in assay [3], no more than 100 nM.

`N#Cc1c(N)sc2c(F)ccc(-c3c(OC(F)(F)F)cc4c(N5CC6CCC(C5)N6)nc(OC[C@@]56CCCN5C[C@H](F)C6)nc4c3F)c12` [Compound 320]: the results for the IC50 in assay [1], in assay [2] and in assay [3] were 100 to 1000 nM, 100 to 1000 nM and no more than 100 nM, respectively.

As for `N#Cc1c(N)sc2c(F)ccc(-c3cc4nc(OC[C@@]56CCCN5C[C@H](F)C6)nc(N5CC6CCC(C5)N6)c4cc3C(F)(F)F)c12` [Compound 323, 4-(4-(3,8-diazabicyclo[3.2.1]octan-3-yl)-2-(((2R,7aS)-2-fluorotetrahydro-1H-pyrrolizin-7a(5H)-yl)methoxy)-6-(trifluoromethyl)quinazolin-7-yl)-2-amino-7-fluorobenzo[b]thiophene-3-carbonitrile], the IC50 is no more than 100 nM in assay [1], 100 to 1000 nM in assay [2] and no more than 100 nM in assay [3].

Turning to `Nc1nc2c(-c3c(C(F)(F)F)cc4c(N5CC6CCC(C5)N6CC5CC5)nc(OC[C@@]56CCCN5C[C@H](F)C6)nc4c3F)ccc(F)c2s1` [Compound 324], the IC50 in assay [1] fell in the range of 1000 to 10000 nM; in assay [2] it was 1000 to 10000 nM; in assay [3] it was 100 to 1000 nM.

Consider `CN(c1nc(OC[C@@]23CCCN2C[C@H](F)C3)nc2c(F)c(-c3ccc(F)c4sc(N)nc34)c(C(F)(F)F)cc12)[C@H]1CNCC1(C)C` [Compound 325], for which the half-maximal inhibitory concentration (IC50) in assay [1] was 1000 to 10000 nM; in assay [2], 1000 to 10000 nM; in assay [3], greater than 1000 nM.

As to `Nc1nc2c(-c3c(C(F)(F)F)cc4c(N[C@H]5C[C@H]6CNC[C@H]6C5)nc(OCC56CCCN5CCC6)nc4c3F)ccc(F)c2s1` [Compound 326], the IC50 is 1000 to 10000 nM in assay [1], 1000 to 10000 nM in assay [2] and greater than 1000 nM in assay [3].

Consider `Nc1nc2c(-c3c(C(F)(F)F)cc4c(N5CCC6(CCNC6)C5)nc(OCC56CCCN5CCC6)nc4c3F)ccc(F)c2s1` (stereo not drawn) [Compound 327], for which the values for the IC50 in assay [1], in assay [2] and in assay [3] were 100 to 1000 nM, 1000 to 10000 nM and greater than 1000 nM, respectively.

With `Nc1nc2c(-c3c(C(F)(F)F)cc4c(N[C@H]5CCC[C@H](N)C5)nc(OCC56CCCN5CCC6)nc4c3F)ccc(F)c2s1` [Compound 328], the IC50 was 1000 to 10000 nM in assay [1], 1000 to 10000 nM in assay [2] and greater than 1000 nM in assay [3].

As to `Nc1nc2c(-c3c(C(F)(F)F)cc4c(N[C@H]5CCC[C@@H](N)C5)nc(OCC56CCCN5CCC6)nc4c3F)ccc(F)c2s1` [Compound 329], the concentration for half-maximal inhibition (IC50) in assay [1] was 10000 to 30000 nM; in assay [2], 10000 to 30000 nM; in assay [3], greater than 1000 nM.

Consider `N#Cc1c(N)sc2c(F)ccc(-c3c(C(F)(F)F)cc4c(N5CC6CCC(C5)N6)nc(OCC5(CN6CC[C@@H](F)C6)CC5)nc4c3F)c12` [Compound 330], for which the IC50 in assay [1] is no more than 100 nM; in assay [2], 100 to 1000 nM; in assay [3] it was no more than 100 nM.

As for `Fc1c(-c2cc(C(F)F)cc3ccccc23)c(C(F)(F)F)cc2c(N3CC4CCC(C3)N4)nc(OCC34CCCN3CCC4)nc12` [Compound 331], the half-maximal inhibitory concentration (IC50) in assay [1] is 10000 to 30000 nM; in assay [2] it was 10000 to 30000 nM; in assay [3] it was greater than 1000 nM.

On to `Nc1nc2c(-c3c(C(F)(F)F)cc4c(N5CCC[C@H]6NCC[C@H]65)nc(OCC56CCCN5CCC6)nc4c3F)ccc(F)c2s1` [Compound 332], for which the values for the IC50 in assay [1], in assay [2] and in assay [3] were 100 to 1000 nM, 1000 to 10000 nM and 100 to 1000 nM, respectively.

Turning to `Nc1nc2c(-c3c(C(F)(F)F)cc4c(N5CC[C@@H]6NCC[C@@H]65)nc(OCC56CCCN5CCC6)nc4c3F)ccc(F)c2s1` [Compound 333], the results for the IC50 in assay [1], in assay [2] and in assay [3] were 1000 to 10000 nM, 1000 to 10000 nM and greater than 1000 nM, respectively.

Turning to `Nc1nc2c(-c3c(C(F)(F)F)cc4c(N[C@@H]5CCC6(CNC6)C5)nc(OCC56CCCN5CCC6)nc4c3F)ccc(F)c2s1` [Compound 334], the half-inhibitory concentration (IC50) in assay [1] is 1000 to 10000 nM; in assay [2], 1000 to 10000 nM; in assay [3], greater than 1000 nM.

For `Nc1nc2c(-c3c(C(F)(F)F)cc4c(N[C@H]5CCC6(CNC6)C5)nc(OCC56CCCN5CCC6)nc4c3F)ccc(F)c2s1` [Compound 335], the half-maximal inhibitory concentration (IC50) in assay [1] was 100 to 1000 nM; in assay [2], 100 to 1000 nM; in assay [3] it was greater than 1000 nM.

With `C[C@@H]1C[C@@H](N(C)c2nc(OC[C@@]34CCCN3C[C@H](F)C4)nc3cc(-c4ccc(F)c5sc(N)nc45)c(C(F)(F)F)cc23)CN1` [Compound 336], the figures for the half-inhibitory concentration (IC50) in assay [1], in assay [2] and in assay [3] were 100 to 1000 nM, 1000 to 10000 nM and 100 to 1000 nM, respectively.

Consider `N#Cc1c(N)sc2c(F)ccc(-c3c(C(F)(F)F)cc4c(N5CC6CCC(C5)N6)nc(OCC5(CN6CCOCC6)CC5)nc4c3F)c12` [Compound 337], for which the half-maximal inhibitory concentration (IC50) was no more than 100 nM in assay [1], 100 to 1000 nM in assay [2] and no more than 100 nM in assay [3].

Regarding `Fc1c(-c2ccc(F)c3sc(C(F)F)nc23)c(C(F)(F)F)cc2c(N3CC4CCC(C3)N4)nc(OC[C@@]34CCCN3C[C@H](F)C4)nc12` [Compound 339], the IC50 in assay [1] is 10000 to 30000 nM; in assay [2], 10000 to 30000 nM; in assay [3], greater than 1000 nM.

In the case of `CN1CCC(Oc2nc(N3CC4CCC(C3)N4)c3cc(C(F)(F)F)c(-c4ccc(F)c5sc(N)nc45)c(F)c3n2)CC1` [Compound 340], the values for the IC50 in assay [1], in assay [2] and in assay [3] were 1000 to 10000 nM, 1000 to 10000 nM and 100 to 1000 nM, respectively.

Consider `N#Cc1c(O)cccc1-c1c(C(F)(F)F)cc2c(N3CC4CCC(C3)N4)nc(OCC34CCCN3CCC4)nc2c1F` [Compound 341], for which the half-maximal inhibitory concentration (IC50) in assay [1] was 10000 to 30000 nM; in assay [2] it was 10000 to 30000 nM; in assay [3] it was greater than 1000 nM.

Turning to `N#Cc1c(N)cccc1-c1c(C(F)(F)F)cc2c(N3CC4CCC(C3)N4)nc(OCC34CCCN3CCC4)nc2c1F` [Compound 342], the results for the IC50 in assay [1], in assay [2] and in assay [3] were 10000 to 30000 nM, 10000 to 30000 nM and greater than 1000 nM, respectively.

`Nc1nc2c(-c3c(C(F)(F)F)cc4c(N5C[C@H]6CC[C@@H](C5)N6)nc(OC[C@@]56CCCN5C[C@H](F)C6)nc4c3O)ccc(F)c2s1` [Compound 343, 7-(2-amino-7-fluorobenzo[d]thiazol-4-yl)-4-((1R,5S)-3,8-diazabicyclo[3.2.1]octan-3-yl)-2-(((2R,7aS)-2-fluorotetrahydro-1H-pyrrolizin-7a(5H)-yl)methoxy)-6-(trifluoromethyl)quinazolin-8-ol]: the concentration for half-maximal inhibition (IC50) in assay [1] is 10000 to 30000 nM; in assay [2], 10000 to 30000 nM; in assay [3] it was greater than 1000 nM.

As to `CN(c1nc(OC[C@@]23CCCN2C[C@H](F)C3)nc2c(F)c(-c3ccc(F)c4sc(N)c(C#N)c34)ccc12)[C@@H]1CCNC1` [Compound 344], the IC50 in assay [1], in assay [2] and in assay [3] was 100 to 1000 nM throughout.

Consider `CN(c1nc(OC[C@@]23CCCN2C[C@H](F)C3)nc2c(F)c(-c3ccc(F)c4sc(N)c(C#N)c34)c(C#N)cc12)[C@@H]1CCNC1` [Compound 345, 7-(2-amino-3-cyano-7-fluorobenzo[b]thiophen-4-yl)-8-fluoro-2-(((2R,7aS)-2-fluorotetrahydro-1H-pyrrolizin-7a(5H)-yl)methoxy)-4-(methyl((R)-pyrrolidin-3-yl)amino)quinazoline-6-carbonitrile], for which the IC50 in assay [1], in assay [2] and in assay [3] was 100 to 1000 nM in each case.

`Nc1c(F)c(F)c(F)c(-c2c(C(F)(F)F)cc3c(N4CC5CCC(C4)N5)nc(OCC45CCCN4CCC5)nc3c2F)c1Cl` [Compound 346]: the IC50 in assay [1] was 10000 to 30000 nM; in assay [2], 10000 to 30000 nM; in assay [3], greater than 1000 nM.

Take `CN(c1nc(OC[C@@]23CCCN2C[C@H](F)C3)nc2cc(-c3ccc(F)c4sc(N)c(C#N)c34)c(C(F)(F)F)cc12)[C@H]1CNC[C@H]1F` [Compound 347]: the IC50 in assay [1] was 100 to 1000 nM; in assay [2], 100 to 1000 nM; in assay [3], no more than 100 nM.

Regarding `Nc1nc2c(-c3c(C(F)(F)F)cc4c(N5CC[C@H]6CCNC[C@H]65)nc(OCC56CCCN5CCC6)nc4c3F)ccc(F)c2s1` [Compound 348], the half-maximal inhibitory concentration (IC50) was 1000 to 10000 nM in assay [1], 1000 to 10000 nM in assay [2] and greater than 1000 nM in assay [3].

As for `Nc1nc2c(-c3c(C(F)(F)F)cc4c(N5CC[C@@H]6CCNC[C@@H]65)nc(OCC56CCCN5CCC6)nc4c3F)ccc(F)c2s1` [Compound 349], the half-inhibitory concentration (IC50) was 1000 to 10000 nM in assay [1], 1000 to 10000 nM in assay [2] and greater than 1000 nM in assay [3].
